According to the supplement of paper PMC10883282:

Tests used:
Test in all cases: relative viability vs DMSO control (72 h) (fraction); higher = more viable cells
G401 = test system: G401
Procedure, shortened: (§1)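 Relative viability was measured with ATPLite and expressed as percent growth, averaged across up to triplicate wells. Sarcoma cell lines had been seeded in 384-well plates to reach 80–90% confluence, dosed after 24 h, and incubated 72 h at 37 °C, 5% CO2. All data were rescaled on a scale where 1 is full and 0 is none.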

HT1080 = test system: HT1080
Procedure, shortened: as §1

KHOS-240S = test system: KHOS-240S
Procedure, shortened: as §1

MES-SA = test system: MES-SA
Procedure, shortened: as §1

RD-ES = test system: RD-ES
Procedure, shortened: as §1

RD = test system: RD
Procedure, shortened: as §1

SK-ES-1 = test system: SK-ES-1
Procedure, shortened: as §1

SK-LMS-1 = test system: SK-LMS-1
Procedure, shortened: as §1

SW1353 = test system: SW1353
Procedure, shortened: as §1

SW982 = test system: SW982
Procedure, shortened: as §1

SYO-1 = test system: SYO-1
Procedure, shortened: as §1

VA-ES-BJ = test system: VA-ES-BJ
Procedure, shortened: as §1

FC(F)(F)c1ccc(CNc2ccc(Cc3c[nH]c4ncc(Cl)cc34)cn2)cn1 [Pexidartinib]
Conditions | relative viability
G401, 0.00017 µM | 1.03
G401, 0.00051 µM | 1.036
G401, 0.00152 µM | 1.03
G401, 0.00457 µM | 1.05
G401, 0.01372 µM | 1.02
G401, 0.04115 µM | 1
G401, 0.1235 µM | 0.685
G401, 0.3704 µM | 0.9956
G401, 1.111 µM | 0.9873
G401, 3.333 µM | 0.95
G401, 10 µM | 0.8332
HT1080, 0.00017 µM | 1.14
HT1080, 0.00051 µM | 1.12
HT1080, 0.00152 µM | 1.12
HT1080, 0.00457 µM | 1.05
HT1080, 0.01372 µM | 1.1
HT1080, 0.04115 µM | 1.1
HT1080, 0.1235 µM | 1.06
HT1080, 0.3704 µM | 1.08
HT1080, 1.111 µM | 1.05
HT1080, 3.333 µM | 1.065
HT1080, 10 µM | 1.02
KHOS-240S, 0.00017 µM | 1.09
KHOS-240S, 0.00051 µM | 1.07
KHOS-240S, 0.00152 µM | 1.07
KHOS-240S, 0.00457 µM | 1.08
KHOS-240S, 0.01372 µM | 1.08
KHOS-240S, 0.04115 µM | 1.08
KHOS-240S, 0.1235 µM | 1.1
KHOS-240S, 0.3704 µM | 1.06
KHOS-240S, 1.111 µM | 0.997
KHOS-240S, 3.333 µM | 1
KHOS-240S, 10 µM | 0.913
MES-SA, 0.00017 µM | 0.96
MES-SA, 0.00051 µM | 0.947
MES-SA, 0.00152 µM | 0.954
MES-SA, 0.00457 µM | 0.936
MES-SA, 0.01372 µM | 0.911
MES-SA, 0.04115 µM | 0.934
MES-SA, 0.1235 µM | 0.923
MES-SA, 0.3704 µM | 0.883
MES-SA, 1.111 µM | 0.892
MES-SA, 3.333 µM | 0.872
MES-SA, 10 µM | 0.69
RD, 0.00017 µM | 1.12
RD, 0.00051 µM | 1.1
RD, 0.00152 µM | 1.12
RD, 0.00457 µM | 1.13
RD, 0.01372 µM | 1.13
RD, 0.04115 µM | 1.11
RD, 0.1235 µM | 1.12
RD, 0.3704 µM | 1.15
RD, 1.111 µM | 1.14
RD, 3.333 µM | 1.15
RD, 10 µM | 1.17
RD-ES, 0.00017 µM | 0.973
RD-ES, 0.00051 µM | 0.99
RD-ES, 0.00152 µM | 1.01
RD-ES, 0.00457 µM | 1.02
RD-ES, 0.01372 µM | 1.02
RD-ES, 0.04115 µM | 0.982
RD-ES, 0.1235 µM | 1.01
RD-ES, 0.3704 µM | 0.998
RD-ES, 1.111 µM | 0.977
RD-ES, 3.333 µM | 0.959
RD-ES, 10 µM | 0.969
SK-ES-1, 0.00017 µM | 1.05
SK-ES-1, 0.00051 µM | 1.03
SK-ES-1, 0.00152 µM | 1.02
SK-ES-1, 0.00457 µM | 1.07
SK-ES-1, 0.01372 µM | 1.04
SK-ES-1, 0.04115 µM | 1.06
SK-ES-1, 0.1235 µM | 1.03
SK-ES-1, 0.3704 µM | 1.03
SK-ES-1, 1.111 µM | 0.978
SK-ES-1, 3.333 µM | 1.02
SK-ES-1, 10 µM | 0.915
SK-LMS-1, 0.00017 µM | 1.03
SK-LMS-1, 0.00051 µM | 1.06
SK-LMS-1, 0.00152 µM | 1.05
SK-LMS-1, 0.00457 µM | 1.04
SK-LMS-1, 0.01372 µM | 1.03
SK-LMS-1, 0.04115 µM | 1.03
SK-LMS-1, 0.1235 µM | 1.05
SK-LMS-1, 0.3704 µM | 1.02
SK-LMS-1, 1.111 µM | 0.995
SK-LMS-1, 3.333 µM | 1
SK-LMS-1, 10 µM | 0.864
SW982, 0.00017 µM | 1.02
SW982, 0.00051 µM | 1.05
SW982, 0.00152 µM | 1.06
SW982, 0.00457 µM | 1.07
SW982, 0.01372 µM | 1.05
SW982, 0.04115 µM | 1.05
SW982, 0.1235 µM | 1.06
SW982, 0.3704 µM | 1.05
SW982, 1.111 µM | 1.09
SW982, 3.333 µM | 1.07
SW982, 10 µM | 1.12
SW1353, 0.00017 µM | 1.07
SW1353, 0.00051 µM | 1.03
SW1353, 0.00152 µM | 0.993
SW1353, 0.00457 µM | 1.02
SW1353, 0.01372 µM | 0.988
SW1353, 0.04115 µM | 1.01
SW1353, 0.1235 µM | 1
SW1353, 0.3704 µM | 0.975
SW1353, 1.111 µM | 0.897
SW1353, 3.333 µM | 0.896
SW1353, 10 µM | 0.85
SYO-1, 0.00017 µM | 1.03
SYO-1, 0.00051 µM | 1.03
SYO-1, 0.00152 µM | 0.953
SYO-1, 0.00457 µM | 0.94
SYO-1, 0.01372 µM | 0.927
SYO-1, 0.04115 µM | 0.925
SYO-1, 0.1235 µM | 0.868
SYO-1, 0.3704 µM | 0.8
SYO-1, 1.111 µM | 0.733
SYO-1, 3.333 µM | 0.701
SYO-1, 10 µM | 0.659
VA-ES-BJ, 0.00017 µM | 1.07
VA-ES-BJ, 0.00051 µM | 1.068
VA-ES-BJ, 0.00152 µM | 1.07
VA-ES-BJ, 0.00457 µM | 1.06
VA-ES-BJ, 0.01372 µM | 1.05
VA-ES-BJ, 0.04115 µM | 1.04
VA-ES-BJ, 0.1235 µM | 1.06
VA-ES-BJ, 0.3704 µM | 1.04
VA-ES-BJ, 1.111 µM | 1.03
VA-ES-BJ, 3.333 µM | 1.03
VA-ES-BJ, 10 µM | 1.05
